The source made the active and inactive calls.
How the values were obtained:
[1] = P. falciparum Dd2 growth inhibitors, dose response, SYBR Green, cherry-picked samples (AID 1159567); type: functional, cell-based
[2] = blockers of HIV-1 envelope-mediated cell-cell fusion – cherry-pick, dose response (AID 652057); type: functional, cell-based
[3] = toxicity to human hepatoma HepG2 cells – cell-based, cherry-picked samples, cytotoxicity control, dose response (AID 1159577); type: functional
[4] = blockers of HIV-1 ZM109 envelope-driven cell-cell fusion – HeLa effector, CEM target cells, luciferase, cherry-pick, dose response (AID 652058); type: functional, cell-based;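 also: luciferase signal from HIV-1 Env mediated cell-cell fusion of effector and target cells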
[5] = HIV-1 AD8 envelope cell-cell fusion blockers – cherry-pick, dose response (AID 652062); type: functional, cell-based;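 also: luciferase signal from cell-cell fusion driven by HIV-1 clade B AD8 Env; potency is for inhibitors of fusion seen as a drop in luminescence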
[6] = growth inhibition of yeast DHODH-expressing 3D7 parasites – SYBR Green, dry powder samples, dose response (AID 1159570); type: functional, cell-based;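 also: parasite growth measured after 72 hours of compound exposure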
[7] = toxicity to human HepG2 hepatoma cells – cell-based, plate reader, dry powder samples, cytotoxicity control, dose response (AID 1159569); type: functional;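 also: inhibitor potency with signal falling toward the positive control level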
[8] = Dd2 malaria parasite growth inhibition potency – SYBR Green, dry powder samples, dose response (AID 1159566); type: functional, cell-based;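 also: potency for growth inhibition with lower SYBR green DNA signal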
[9] = growth inhibition of PfATP4-mutant resistant parasites – NITD609-resistant line, SYBR Green, dry powder, dose response (AID 1159571); type: functional, cell-based;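 also: parasites synchronized at ring stage by sorbitol before testing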
Paired box protein Pax-8 = Paired box protein Pax-8 (Homo sapiens, UniProt Q06710); assay: PAX8 transcriptional activity inhibition in RMG-I – RMG-I cells, luciferase, cherry-pick, dose response (AID 687027); type: functional, cell-based;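 also: luciferase reporter driven by Pax8 target thyroperoxidase promoter measured by SteadyGlo luminescence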
[10] = OVCAR8 cell viability loss – plate reader, dry powder samples, PAX8 project, dose response (AID 743197); type: functional, cell-based; conditions: OVCAR-8
[11] = OVCAR-3 cell viability loss – plate reader, dry powder samples, PAX8 inhibitor project, dose response (AID 743044); type: functional, cell-based
[12] = A2780 cell killing – plate reader, dry powder samples, cytotoxicity control, dose response (AID 743046); type: functional, cell-based
[13] = Late stage assay provider results from the probe development effort to identify inhibitors of the Plasmodium falciparum M18 Aspartyl Aminopeptidase (M18AAP): radiolabel-based cell-based dose response assay to identify compounds that inhibit P. falciparum growth in RBCs, Set 2..; type: functional
[14] = target: G-protein coupled receptor 183 (Homo sapiens, UniProt P32249); assay: SAR confirmation of small molecule antagonists of the EBI2 receptor via a luminescent beta-arrestin assa.; type: functional
[15] = target: COUP transcription factor 2 (Homo sapiens, UniProt P24468); assay: Luminescence-based cell-based high throughput dose response assay to identify inhibitors of COUP-TFII (NR2F2).; type: functional;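 also: HEK293 cells transiently cotransfected with COUP-TFII expression vector and reporter; luciferase reporter luminescence driven by COUP-TFII from the pX2-168 reporter plasmid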
INS1 = assay: INS-1E survival protection against cytokine death – cell-based, luminescence, retest, dose response (AID 449756); type: functional; conditions: Rattus norvegicus;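 also: cell death triggered by IL-1 beta plus TNF-alpha plus IFN-gamma mixture; protective hits raise ATP signal compared with cytokine alone wells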

Chain of Paired box protein Pax-8 (Q06710 whole entry): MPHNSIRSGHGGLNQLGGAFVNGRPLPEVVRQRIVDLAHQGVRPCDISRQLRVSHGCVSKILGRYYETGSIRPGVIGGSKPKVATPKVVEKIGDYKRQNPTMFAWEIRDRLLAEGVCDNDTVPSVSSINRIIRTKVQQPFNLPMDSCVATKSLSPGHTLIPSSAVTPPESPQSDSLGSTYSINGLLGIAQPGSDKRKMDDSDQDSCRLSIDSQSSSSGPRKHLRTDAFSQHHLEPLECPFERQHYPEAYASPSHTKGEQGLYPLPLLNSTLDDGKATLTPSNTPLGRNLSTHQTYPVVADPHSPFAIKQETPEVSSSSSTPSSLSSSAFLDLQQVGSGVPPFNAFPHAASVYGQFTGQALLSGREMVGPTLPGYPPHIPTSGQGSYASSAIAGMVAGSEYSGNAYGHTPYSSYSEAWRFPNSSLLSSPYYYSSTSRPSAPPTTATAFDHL
Chain of G-protein coupled receptor 183 (P32249 whole entry): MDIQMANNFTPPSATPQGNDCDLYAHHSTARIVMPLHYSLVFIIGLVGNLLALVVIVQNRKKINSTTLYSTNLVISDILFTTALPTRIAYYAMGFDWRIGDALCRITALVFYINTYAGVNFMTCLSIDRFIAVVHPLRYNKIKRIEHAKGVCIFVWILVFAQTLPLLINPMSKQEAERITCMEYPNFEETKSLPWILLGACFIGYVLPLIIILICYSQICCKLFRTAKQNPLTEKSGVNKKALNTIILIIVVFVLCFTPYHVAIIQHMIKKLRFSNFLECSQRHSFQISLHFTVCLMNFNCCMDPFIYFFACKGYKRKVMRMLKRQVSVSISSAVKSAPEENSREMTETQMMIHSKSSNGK
Chain of COUP transcription factor 2 (P24468 whole entry): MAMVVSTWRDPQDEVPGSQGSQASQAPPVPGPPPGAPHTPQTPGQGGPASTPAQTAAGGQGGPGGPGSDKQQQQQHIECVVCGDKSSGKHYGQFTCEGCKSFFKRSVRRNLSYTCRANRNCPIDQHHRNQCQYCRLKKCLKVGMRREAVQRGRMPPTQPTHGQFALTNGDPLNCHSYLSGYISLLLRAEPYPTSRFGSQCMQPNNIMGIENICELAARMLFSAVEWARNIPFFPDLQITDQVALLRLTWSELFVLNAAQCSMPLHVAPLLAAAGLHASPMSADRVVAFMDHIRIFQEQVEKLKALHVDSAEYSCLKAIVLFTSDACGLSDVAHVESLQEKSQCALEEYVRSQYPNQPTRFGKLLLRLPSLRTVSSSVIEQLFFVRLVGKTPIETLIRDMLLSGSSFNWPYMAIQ

O=C(Nc1ccc(Cl)c(Cl)c1)N[C@@H]1CC[C@@H](CCn2cc(C3CCCCC3)nn2)O[C@@H]1CO
active: AC50 [1] 12.4 µM | AC50 [2] 46.9 µM | AC50 [3] 17.8 µM | AC50 [4] 0.538 µM | AC50 [5] 57.9 µM

OC[C@@H]1[C@@H](c2ccccc2)C2(CN(CC3CC3)C2)N1Cc1ccc(F)cc1
active: AC50 [1] 0.919 µM | AC50 [6] 1.98 µM | AC50 [7] 43.6 µM | AC50 [8] 1.09 µM | AC50 [9] 1.52 µM

CC(C)NC(=O)N1Cc2cc(C(=O)NCC(F)(F)F)nc(-c3cccc(-c4cc5ccccc5o4)c3)c2[C@H]1CCO
active: AC50 (Paired box protein Pax-8) 7.2 µM | AC50 [1] 5.15 µM | AC50 [10] 58.2 µM | AC50 [11] 38.2 µM | AC50 [12] 16.8 µM

Oc1ccc(CCNC2CCN(Cc3ccccc3)CC2)cc1O
active: IC50 [13] 6.5 µM

C[C@H](CO)N1C[C@H](C)[C@@H](CN(C)S(=O)(=O)c2ccc(Cl)cc2)OCCCC[C@H](C)Oc2ccc(NS(=O)(=O)c3ccc(F)cc3)cc2C1=O
active: AC50 (Paired box protein Pax-8) 4.45 µM | AC50 [11] 36 µM | AC50 [12] 29.1 µM

O=C(/C=C/c1ccc(Br)cc1)N1CCN(Cc2ccccc2F)CC1
active: IC50 [14] 0.0287 µM

O=C(NCC(c1ccco1)N1CCCC1)c1ccc(Cl)c(S(=O)(=O)N2CCc3ccccc32)c1 (configuration not stated)
active: IC50 [15] 7.01 µM | AC50 (INS1) 3.56 µM
